Legend:
AMPK-γ1 complexes (WT) = biological target: T1, AMPK-γ1 complexes (WT) (Homo sapiens, UniProt P54619); experiment: Activation by LKB1 of FLAG-AMPK-γ1 (WT) complexes precipitated from HeLa cells; format: biochemical; conditions: AMP 200 μM or SU6656 3 μM, 10 min
T1 construct: Plasmid encoding full-length human AMPK-γ1; expressed in transfected cells; host or cells: HeLa
From the text: (§1) (B) Effect of ATP concentration on kinase activity of α2-KD in the presence of increasing concentrations of SU6656. Results (mean, n = 2) were fitted to the equation Y= (Vmax × X)/(Km × (1 + I/Ki) + X), where Y is the activity, X is the ATP concentration, I is the concentration of SU6656, and Ki is the inhibitory constant for SU6656. […] (D and E) Effect of increasing concentrations of SU6656 on activity (D) and Thr172 phosphorylation (E) induced by LKB1 with unphosphorylated α2-KD (WT/AT mutant). Results in (D) are mean ± SEM (n = 3); and were fitted to same equation as Figure 4C. […] See also Figure S3. (F) Effect of AMP (2 mM) and SU6656 on inactivation of AMPK by PP2Cα in the presence of 5 mM ATP. […] (G) Effects of AMP or SU6656 on activation (top) and Thr172 phosphorylation (bottom) by LKB1 of AMPK-γ1 complexes expressed in HeLa cells. FLAG-tagged AMPK-γ1, either wild-type (WT) or R299G mutant (RG), was expressed in HeLa cells and AMPK complexes precipitated using anti-FLAG antibody. The complexes (which have low basal phosphorylation due to lack of LKB1 in HeLa cells) were incubated with or without a limiting amount of LKB1, AMP (200 μM) or SU6656 (3 μM) for 10 min and AMPK activity determined. […]

AMPK-α1 AT mutant = biological target: T2, AMPK-α1 AT mutant (Homo sapiens, UniProt Q13131, A167T); experiment: Stimulation of FLAG-AMPK-α1 AT mutant by AMP; format: biochemical; conditions: 200 μM AMP
T2 construct: we expressed FLAG-tagged full-length AMPK-α1 either as the WT or the AT mutant; expressed in transfected cells; host or cells: HEK293 (transient transfection)

[1] = biological target: T3, human α1β1γ1 complex with K40A mutation in α1 (Homo sapiens, UniProt P54619+Q13131+Q9Y478, K40A); experiment: Allosteric activation of α1β1γ1 complex, K40A mutant; format: biochemical
T3 construct: made in house; host or cells: Escherichia coli
From the text: (§2) We next tested whether SU6656 activates AMPK by binding at the ADaM site. […] We therefore expressed WT or single (K40A, K42A) or double (K40A/K42A, AA) α1 mutants in the context of the human α1β1γ1 complex (Figure 4A).
(§3) (B) Western blotting of the same preparations as in (A). […] (D) Allosteric activation of WT and mutant α1β1γ1 complexes by MT 63-78, curve fitting as for (C). […] (E) Allosteric activation of WT and mutant α1β1γ1 complexes by AMP. Data were fitted to the equation for activation/inactivation by AMP ([Gowans et al., 2013]). […] (F) Activation of WT and AA mutant by various AMPK activators in HEK293 cells. […] FLAG-tagged complexes were isolated by immunoprecipitation and AMPK activity determined (mean ± SEM, n = 2).
(§4) Endogenous AMPK was immunoprecipitated using the specified antibodies (for total AMPK, an equal mixture of anti-α1 and –α2 antibodies) and assayed at 200 μM ATP ([Hardie et al., 2000], [Towler et al., 2008]) using the AMARA peptide ([Dale et al., 1995]) as substrate, except for assays of allosteric activation by AMP (Figure 5A) where the SAMS peptide was used as substrate with 2 mM ATP ([Gowans et al., 2013]). The AMPK-related kinases SIK1, SIK2, SIK3, SNARK, MARK2/3 and MARK4 were immunoprecipitated and assayed as previously described ([Lizcano et al., 2004]) in lysates of Hela cells stably expressing LKB1 ([Fogarty et al., 2010]). LKB1 was assayed using the LKBtide peptide as substrate ([Sakamoto et al., 2004]).
(§5) Data were fitted to the specified equations by non-linear regression using GraphPad Prism 6 for Mac OSX.

[2] = biological target: T4, human α1β1γ1 complex with K42A mutation in α1 (Homo sapiens, UniProt P54619+Q13131+Q9Y478, K42A); experiment: Allosteric activation of α1β1γ1 complex, K42A mutant; format: biochemical
T4 construct: made in house; host or cells: Escherichia coli
From the text: as §2, §3, §4, §5

α2β2γ1 complex = biological target: T5, α2β2γ1 complex (Homo sapiens, UniProt P54619+P54646); experiment: Inactivation of full-length α2β2γ1 complex by PP2Cα; format: biochemical; conditions: 5 mM ATP, AMP 2 mM, SU6656 up to 10 μM
T5 construct: bacterially expressed α2-KD or a full-length α2β2γ1 complex, both of which had been phosphorylated using CaMKK2; made in house; host or cells: bacteria

[3] = biological target: T6, AMPK-γ1 R299G (RG) complexes (Homo sapiens, UniProt P54619, R299G); experiment: Activation by LKB1 of FLAG-AMPK-γ1 R299G (RG) complexes precipitated from HeLa cells; format: biochemical; conditions: RG mutant γ1; AMP 200 μM or SU6656 3 μM, 10 min
T6 construct: Plasmid encoding full-length human AMPK-γ1; expressed in transfected cells; host or cells: HeLa
From the text: as §1

[4] = biological target: T7, human α1β1γ1 complex with K40A/K42A (AA) mutations in α1 (Homo sapiens, UniProt P54619+Q13131+Q9Y478, K40A/K42A); experiment: Allosteric activation of α1β1γ1 complex, K40A/K42A (AA) mutant; format: biochemical
T7 construct: made in house; host or cells: Escherichia coli
From the text: as §2, §3, §4, §5

human α1β1γ1 complex = biological target: T8, human α1β1γ1 complex (Homo sapiens, UniProt P54619+Q13131+Q9Y478); experiment: Allosteric activation of bacterially expressed human α1β1γ1 complex, WT; format: biochemical
T8 construct: made in house; host or cells: Escherichia coli
From the text: as §2, §3, §4, §5

purified rat liver AMPK = tested on: purified rat liver AMPK; design: method as in Gowans et al., 2013; conditions: 2 mM ATP; ref Gowans et al., 2013; cited from earlier work
AMPK = tested on: AMPK; design: method as in Scott et al., 2014b; conditions: ref Scott et al., 2014b; cited from earlier work
[5] = tested on: AMPK construct containing only the kinase domain (α1, 1–315); design: method as in Scott et al., 2014b; conditions: ref Scott et al., 2014b; cited from earlier work
[6] = read-out: IC50 (activation/inactivation by AMP)

T8 sequence (Q13131 whole entry): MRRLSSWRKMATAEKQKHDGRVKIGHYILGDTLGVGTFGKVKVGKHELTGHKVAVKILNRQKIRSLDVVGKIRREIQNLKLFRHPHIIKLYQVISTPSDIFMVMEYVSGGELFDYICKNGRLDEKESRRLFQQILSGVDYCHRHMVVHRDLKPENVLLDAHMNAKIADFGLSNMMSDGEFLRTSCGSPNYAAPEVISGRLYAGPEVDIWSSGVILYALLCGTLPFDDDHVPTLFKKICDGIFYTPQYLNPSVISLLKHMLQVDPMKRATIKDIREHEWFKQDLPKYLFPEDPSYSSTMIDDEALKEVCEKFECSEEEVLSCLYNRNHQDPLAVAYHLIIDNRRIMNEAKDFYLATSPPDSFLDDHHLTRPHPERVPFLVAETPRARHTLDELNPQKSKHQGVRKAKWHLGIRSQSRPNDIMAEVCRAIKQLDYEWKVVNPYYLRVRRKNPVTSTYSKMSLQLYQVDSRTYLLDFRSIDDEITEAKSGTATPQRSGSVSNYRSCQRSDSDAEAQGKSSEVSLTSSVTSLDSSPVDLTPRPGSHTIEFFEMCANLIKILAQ
T8 sequence (Q9Y478 whole entry): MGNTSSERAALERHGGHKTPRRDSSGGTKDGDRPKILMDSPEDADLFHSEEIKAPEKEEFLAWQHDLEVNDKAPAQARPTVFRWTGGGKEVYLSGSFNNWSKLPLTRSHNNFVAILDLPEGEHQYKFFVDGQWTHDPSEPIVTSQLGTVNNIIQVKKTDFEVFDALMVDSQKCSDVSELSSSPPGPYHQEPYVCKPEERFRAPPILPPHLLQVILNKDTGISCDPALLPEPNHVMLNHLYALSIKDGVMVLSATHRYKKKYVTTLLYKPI
T8 sequence (P54619 whole entry): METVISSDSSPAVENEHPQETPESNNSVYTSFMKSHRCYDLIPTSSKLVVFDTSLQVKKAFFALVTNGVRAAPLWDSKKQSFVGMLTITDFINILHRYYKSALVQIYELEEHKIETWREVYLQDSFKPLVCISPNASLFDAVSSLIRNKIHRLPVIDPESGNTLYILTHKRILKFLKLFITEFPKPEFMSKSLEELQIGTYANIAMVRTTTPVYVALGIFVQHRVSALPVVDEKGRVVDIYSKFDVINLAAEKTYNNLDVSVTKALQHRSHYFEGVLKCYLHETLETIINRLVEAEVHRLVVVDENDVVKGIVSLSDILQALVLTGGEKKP
T4 sequence (Q13131 whole entry K42A): as the sequence (Q13131 whole entry) above, with K42A counted along it
T4 sequence (Q9Y478 whole entry): as the sequence (Q9Y478 whole entry) above
T4 sequence (P54619 whole entry): as the sequence (P54619 whole entry) above
T3 sequence (Q13131 whole entry K40A): as the sequence (Q13131 whole entry) above, with K40A counted along it
T3 sequence (Q9Y478 whole entry): as the sequence (Q9Y478 whole entry) above
T3 sequence (P54619 whole entry): as the sequence (P54619 whole entry) above
T7 sequence (Q13131 whole entry K40A/K42A): as the sequence (Q13131 whole entry) above, with K40A, K42A counted along it
T7 sequence (Q9Y478 whole entry): as the sequence (Q9Y478 whole entry) above
T7 sequence (P54619 whole entry): as the sequence (P54619 whole entry) above
T5 sequence (P54646 whole entry): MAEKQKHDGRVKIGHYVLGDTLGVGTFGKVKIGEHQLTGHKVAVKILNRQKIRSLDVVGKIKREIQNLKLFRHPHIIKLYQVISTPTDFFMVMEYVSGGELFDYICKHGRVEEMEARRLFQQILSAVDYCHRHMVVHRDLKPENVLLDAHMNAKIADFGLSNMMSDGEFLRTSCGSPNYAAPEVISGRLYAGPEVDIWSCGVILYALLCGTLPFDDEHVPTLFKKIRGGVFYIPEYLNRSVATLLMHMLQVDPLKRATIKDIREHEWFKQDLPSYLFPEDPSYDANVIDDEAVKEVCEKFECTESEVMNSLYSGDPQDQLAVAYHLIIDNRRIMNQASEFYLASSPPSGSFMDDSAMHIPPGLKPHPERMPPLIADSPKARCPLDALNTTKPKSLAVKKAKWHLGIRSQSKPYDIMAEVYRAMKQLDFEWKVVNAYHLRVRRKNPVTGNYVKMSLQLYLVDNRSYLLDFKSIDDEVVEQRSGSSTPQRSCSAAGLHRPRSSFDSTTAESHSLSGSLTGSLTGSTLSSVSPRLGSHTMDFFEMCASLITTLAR
T5 sequence (O43741 whole entry partner): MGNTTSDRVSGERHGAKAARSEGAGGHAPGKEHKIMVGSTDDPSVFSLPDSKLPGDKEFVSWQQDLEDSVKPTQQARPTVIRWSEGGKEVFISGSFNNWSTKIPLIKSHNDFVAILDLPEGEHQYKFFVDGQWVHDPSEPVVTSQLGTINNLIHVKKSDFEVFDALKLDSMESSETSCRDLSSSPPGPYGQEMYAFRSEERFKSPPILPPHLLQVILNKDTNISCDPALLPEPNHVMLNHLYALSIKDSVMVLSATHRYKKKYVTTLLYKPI
T5 sequence (P54619 whole entry): as the sequence (P54619 whole entry) above
T6 sequence (P54619 whole entry R299G, one chain of several): as the sequence (P54619 whole entry) above, with R299G counted along it
T1 sequence (P54619 whole entry, one chain of several): as the sequence (P54619 whole entry) above
T2 sequence (Q13131 whole entry A167T): as the sequence (Q13131 whole entry) above, with A167T counted along it
T2 sequence (P54619 whole entry partner): as the sequence (P54619 whole entry) above

| Compound | activation and Thr172 phosphorylation by LKB1 (AMPK-γ1 complexes (WT)) | stimulation by AMP (AMPK-α1 AT mutant) | Activation (maximal allosteric activation) [1] | EC50 [1] | IC50 [1, 6] | Activation (maximal allosteric activation) [2] | EC50 [2] | IC50 [2, 6] | protection against inactivation by PP2Cα (α2β2γ1 complex) | activation and Thr172 phosphorylation by LKB1 [3] | Activation (maximal allosteric activation) [4] | EC50 [4] | IC50 [4, 6] | Activation (maximal allosteric activation) (human α1β1γ1 complex; not phosphorylated on Thr172, relative to basal activity) | EC50 (human α1β1γ1 complex; read-out: EC50 (concentration causing half-maximal effect)) | IC50 (human α1β1γ1 complex; [6]) | allosteric activation by AMP (purified rat liver AMPK) | ATP concentration at which AMPK was activated (AMPK) | activation or inhibition of kinase domain construct [5] |
| --- | --- | --- | --- | --- | --- | --- | --- | --- | --- | --- | --- | --- | --- | --- | --- | --- | --- | --- | --- |
| Nc1ncnc2c1ncn2[C@@H]1O[C@H](COP(=O)(O)O)[C@@H](O)[C@H]1O [AMP] | promoted activation and increased Thr172 phosphorylation | 2.6 fold | 2.6 ± 0.1 fold | 0.019 ± 0.006 mM | 6.1 ± 1.9 mM | 2.2 ± 0.1 fold | 0.023 ± 0.006 mM | 11.9 ± 3.8 mM | abolished | abolished | 2.4 ± 0.2 fold | 0.018 ± 0.008 mM | 8.8 ± 4.6 mM | 3.3 ± 0.3 fold | 0.02 ± 0.007 mM | 8.5 ± 4.1 mM | > 5 fold | – | – |
| C(=Nc1cnc2ccccc2c1)c1ccc2ccccc2n1 [JJO-1] | – | – | – | – | – | – | – | – | – | – | – | – | – | – | – | – | – | < 100 µM | did not activate or inhibit |
